Measurements taken from patent publication US12590100B2, “Tetrahydro-spiroindoline-pyrrolopyrrole-triones inhibitors of the NRF2-β-TrCP interaction for use in the treatment of fatty liver disease” (Universidad Autonoma De Madrid, priority 2021, dated 2026).

Columns and labels:
STAM mice (NAFLD) = assay: STAM fatty liver model, treatment from NASH stage (week 8) to week 10; format: in vivo, mouse
Description: FIG. 13. PHAR slows fatty liver progression. The progressive damage of liver cells as a consequence of their metabolic alteration and chronic low-grade inflammation leads to their progression towards fibrosis and the consequent loss of liver function. The present invention makes it possible to treat patients diagnosed with fatty liver to prevent its progression towards more severe forms of liver disease such as fibrosis and cirrhosis. A) Scheme of the liver damage progression model. B) Representative spectra derived from MRI studies. At starting point (week 8; W8, NASH inflammation), mice subjected to the STAM protocol had fatty liver imitating the status of newly diagnosed patients. At this point, treatment with PHAR (50 mg/kg i.p; 5 days per week) began until week 10 (W10, fibrosis). C) standardized quantification of the amount of liver fat per mouse measured by MRI. Statistical analysis was performed using a two-way ANOVA followed by a Bonferroni test to compare the differences between treatments in control and STAM groups. **p<0.01. D) profiles of evolution of the amount of liver fat per mouse measured by MRI at week 8 (NASH) and week 10 (fibrosis). E) H&E histochemical analysis of mice treated with PHAR vs vehicle in control mice and in STAM mice together with oil red staining for determination of liver fat levels. F) levels of transcripts corresponding to the metabolism of fatty acids (Cpt1a, Scd1, Cd36 and Fasn). G) Levels of transcripts corresponding to pro-inflammatory cytokines (Tnf, Il6 and Infg) and anti-inflammatory (Il10 and Il4). For F and G, relative mRNA levels were determined by qRT-PCR and normalized by averaging Gapdh, Tbp, and β-actin. Statistical analysis was performed using a bidirectional ANOVA followed by a Bonferroni test to compare the differences between PHAR-treated mice vs vehicle-treated mice in the control and STAM models. *p<0.05; ***p<0.001.
After seeing the beneficial role of PHAR in the prevention of NASH, we analyzed its role in progression of liver damage. The progressive damage of hepatocytes is a consequence of their metabolic alteration and chronic low-grade inflammation and oxidative stress (FIG. 13A). We treated mice in the NASH stage (week 8), 5 days a week with an IP dose of 50 mg/kg PHAR until week 10. The analysis of fat accumulation was measured by MRI both at the initial point of treatment and at the end point (FIG. 13B). Vehicle-treated STAM mice underwent a progressive accumulation of lipids. […] Therefore, PHAR reduces low-grade chronic inflammation and liver fat accumulation.

[1] = HPLC-MS detection of PHAR in liver after IP injection; format: in vivo, mouse; conditions: mice, single IP 50 mg/kg, 120 min
Experimental: FIG. 9. PHAR activates NRF2 and HO-1 in liver. A), UV and MS spectrum derived from the HPLC-MS analysis of PHAR dissolved in methanol for the identification of peaks associated with the compound. A blue rectangle surrounds the mass associated with PHAR. (B-D), the mice were treated with the vehicle (Tween-80+PBS, 1:13), 50 mg/kg of PHAR, or 50 mg/kg of SFN (saline) as a positive control by means of intraperitoneal (IP) injection for 2 hours. B), HPLC-MS UV and MS spectra derived from representative liver samples of both experimental groups used for determining PHAR levels in the liver 120 min after a single IP injection of 50 mg/kg. A blue rectangle surrounds the mass associated with PHAR. C), representative immunoblots showing NRF2, HO1, and LAMINB protein levels as the liver extract loading control. D), densitometric analysis of NRF2 protein levels of the representative immunoblots shown in (C), expressed as a ratio of NRF2/LAMINB. Statistical analysis was performed with one-way ANOVA followed by the Bonferroni test to compare inter-group differences. ***p<0.001 vs. vehicle. […] F), densitometric analysis of NRF2 and HO1 protein levels in the liver tissue of the representative immunoblots shown in (E), expressed as a ratio of NRF2/LAMINB or HO1/LAMINB levels. […]
Once the mechanism of action of PHAR was deciphered, the capacity thereof to induce NRF2 levels in a murine model was evaluated. […]

[2] = STAM mice, week 8 to week 10, liver mRNA

O=C1[C@@H]2[C@H](Cc3c[nH]c4ccccc34)N[C@]3(C(=O)Nc4ccc(Cl)cc43)[C@@H]2C(=O)N1c1ccc2c(c1)OCCO2 [PHAR]
liver fat (oil red staining) (STAM mice (NAFLD); STAM mice, week 8 to week 10, IP 50 mg/kg): protection against liver fat accumulation | lipid accumulation in liver by MRI (STAM mice (NAFLD); STAM mice, week 8 to week 10, IP 50 mg/kg 5 days a week): significant protection against lipid accumulation | expression of Cpt1a (lipid catabolism) (STAM mice (NAFLD); [2]): increasing the expression of Cpt1a | expression of Fasn (lipid synthesis) (STAM mice (NAFLD); [2]): decrease in the expression of Fasn | expression of anti-inflammatory cytokines (STAM mice (NAFLD); [2]): promotes an increase in anti-inflammatory cytokines | expression of pro-inflammatory cytokines (STAM mice (NAFLD); [2]): attenuates the expression of pro-inflammatory cytokines | liver histology (H&E) (STAM mice (NAFLD); control and STAM mice, week 8 to week 10, IP 50 mg/kg): normal liver histology | presence of PHAR in liver tissue (HPLC-MS) [1]: corresponded with the presence of the compound
